# Earlier results in PMC8536644, “Enigmatic mechanism of the N-vinylpyrrolidone hepatocarcinogenicity in the rat” (Archives of Toxicology, 2021).
# What was measured:
# rats = system: rats; parameters: method as in Klimisch et al. [1997b]; details: ref Klimisch et al. [1997b], cited from earlier work
# (liver) DNA = system: (liver) DNA; parameters: method as in Inveresk Research International (IRI) [1986]; details: male CD rats, i.p. 14C-NVP 150 and 300 mg/kg; ref Inveresk Research International (IRI) [1986]; cited from earlier work
# mice = system: mice; parameters: method as in Klimisch et al. [1997b]; details: inhalation, ref Klimisch et al. [1997b]; cited from earlier work
compound,measurement,setting,value
"C=CN1CCCC1=O [NVP, N-vinylpyrrolidone]",Change of total non-protein-bound sulfhydryls,"rats; Sprague–Dawley rats, inhalation 3 months, 10 ppm",increase
same,"Concentration at which erythrocytes, hematocrit and hemoglobin were reduced","rats; rats, inhalation",15 ppm
same,Concentration with foci of altered hepatocytes,"rats; rats, inhalation",5 ppm
same,"LOAEC, liver (increased gamma-glutamyl transpeptidase and glutathione)","rats; rats, inhalation",5 ppm
same,"LOAEC, nasal mucosa (inflammation, olfactory epithelium atrophy, basal cell hyperplasia)","rats; rats, inhalation",5 ppm
same,Dose with necrosis of single centrilobular liver cells,rats; subchronic studies in rats and mice,45 ppm
same,Binding of NVP or its metabolites to (liver) DNA,(liver) DNA,no binding
same,"Concentration at which erythrocytes, hematocrit and hemoglobin were reduced",mice,15 ppm
same,"LOAEC, liver (increased gamma-glutamyl transpeptidase and glutathione)",mice,10 ppm
same,"LOAEC, nasal mucosa (inflammation, olfactory epithelium atrophy, basal cell hyperplasia)",mice,5 ppm
